The nature of series [1]: ThT fibrillation assay for physical stability (lag time, recovery). It is filed as physicochemical. The note with it: absence of increased ThT fluorescence noted as lag time of 45 hours. From the text: This has traditionally been measured by visual inspection of the sample. However, that kind of measurement is very subjective and depending on the observer. Therefore, the application of a small molecule indicator probe is much more advantageous. […] Enzymol.
Here, F is the ThT fluorescence at the time t.
The lag-time corresponds to the interval in which the critical mass of nucleus is built up and the apparent rate constant is the rate with which the fibril itself is formed.
Samples were prepared freshly before each assay. […] The pH of the sample was adjusted to the desired value using appropriate amounts of concentrated NaOH and HCl.
The plate was sealed with Scotch Pad (Qiagen).
Each run was initiated by incubating the plate at the assay temperature for 10 min. The plate was measured every 20 minutes for a desired period of time. Between each measurement, the plate was shaken and heated as described.
The supernatant was filtered through a 0.22 μm filter and an aliquot was transferred to a HPLC vial.
The data set may be fitted to Eq. (1).

For the next series, the target named is T1, glucagon receptor (Homo sapiens, UniProt P47871).
T1 construct: expressed in transfected cells
T1 sequence (P47871 26-477): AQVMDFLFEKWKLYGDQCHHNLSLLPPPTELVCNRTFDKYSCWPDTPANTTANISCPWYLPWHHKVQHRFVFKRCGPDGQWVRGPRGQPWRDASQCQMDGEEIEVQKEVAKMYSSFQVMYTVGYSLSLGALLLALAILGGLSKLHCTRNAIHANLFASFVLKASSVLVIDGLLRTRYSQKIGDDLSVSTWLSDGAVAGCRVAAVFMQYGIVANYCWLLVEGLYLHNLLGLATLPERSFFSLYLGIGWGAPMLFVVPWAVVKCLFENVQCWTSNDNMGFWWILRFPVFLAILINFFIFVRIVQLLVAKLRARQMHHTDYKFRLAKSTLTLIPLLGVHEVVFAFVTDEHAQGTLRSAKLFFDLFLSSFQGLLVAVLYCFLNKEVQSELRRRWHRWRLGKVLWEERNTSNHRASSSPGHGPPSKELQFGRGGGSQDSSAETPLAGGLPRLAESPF
In words: Assay (I) Glucagon activity (cAMP biosensor, FLIPR). Conditions: HEK-293 cells with cloned glucagon receptor and cAMP biosensor; end point after 6 minutes. Format: cell-based. The essentials:
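HEK-293 cells expressing glucagon receptor with membrane cAMP biosensor (ACTOne), calcium-dye loaded with probenecid and a PDE inhibitor.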

Each structure is given as a SMILES string. *1 amine or outer side, *2 acyl side, *3 side chain or, on linkers, in order; H or OH if unused. Where a SMILES comes first, the peptide text is derived from it. Side-chain parts run from the residue outwards. [ ]: non-standard residue; d: D form. γGlu = O=C(O)[C@H](CCC(=O)[*:2])N[*:1]; Aib = CC(C)(N)C(=O)O

On to `CC(=O)N[C@@H](CCC(=O)N[C@@H](CCC(=O)N[C@@H](CCC(=O)N[C@@H](CCC(=O)NCCCC[C@H](NC(=O)[C@@H](NC(=O)[C@H](Cc1ccccc1)NC(=O)[C@H](CCC(=O)O)NC(=O)[C@H](C)NC(=O)[C@H](C)NC(=O)[C@H](CCCNC(=N)N)NC(=O)[C@H](CCCNC(=N)N)NC(=O)[C@@H](NC(=O)[C@H](CC(=O)O)NC(=O)[C@H](CC(C)C)NC(=O)[C@H](Cc1ccc(O)cc1)NC(=O)[C@H](CCCCN)NC(=O)[C@H](CO)NC(=O)[C@H](Cc1ccc(O)cc1)NC(=O)[C@H](CC(=O)O)NC(=O)[C@H](CO)NC(=O)[C@@H](NC(=O)[C@H](Cc1ccccc1)NC(=O)[C@@H](NC(=O)CNC(=O)[C@H](Cc1c[nH]cn1)NC(=O)C(C)(C)NC(=O)[C@@H](N)Cc1c[nH]cn1)[C@@H](C)O)[C@@H](C)O)C(C)C)C(C)C)C(=O)N[C@@H](Cc1c[nH]c2ccccc12)C(=O)N[C@@H](CC(C)C)C(=O)N[C@@H](CC(C)C)C(=O)N[C@@H](CO)C(=O)N[C@H](C(=O)O)[C@@H](C)O)C(=O)O)C(=O)O)C(=O)O)C(=O)O` [Example 48, N^ε24-[(4S)-4-[[(4S)-4-[[(4S)-4-[[(4S)-4-acetamido-4-carboxybutanoyl]amino]-4-carboxybutanoyl]amino]-4-carboxybutanoyl]amino]-4-carboxybutanoyl]-[Aib^2,His^3,Val^16,Ala^20,Glu^21,Lys^24,Leu^27,Ser^28]-Glucagon] (H-H[Aib]HGTFTSDYSKYLDVRRAAEFVK([γGlu-γGlu-γGlu-γGlu-Ac])WLLST-OH), for which the “ThT assay [Lag time]” value in series [1] was 14 h. On glucagon receptor, a half-maximal response (EC50) required 5 pM.

A word on the EC50: it is the concentration giving half of the maximal effect. Read a low EC50 as a more potent agent.

Source of the values: patent US20140031278A1, “Novel Glucagon Analogues” (NOVO NORDISK A/S, priority 2011, published 2014).
